These results are taken from patent EP2435019B1, “DODECA-2E,4E-DIENE AMIDES AND THEIR USE AS MEDICAMENTS AND COSMETICS” (Dr. August Wolff GmbH & Co. KG Arzneimittel, priority 2009, dated 2010).

The target in series [1] is T1, CB1 (Homo sapiens, UniProt P21554).
T1 construct: purchased Perkin Elmer RBHCB1M
The experiment in a line: Radioligand displacement assay on CB1 receptor. The format is binding. The protocol: (§1) For the CB1 receptor, binding experiments were performed in the presence of 0.39 nM of the radioligand [^3H]CP55,940 (168 Ci/mmol) (Perkin Elmer, Waltham, MA, US) at 30°C in siliconized glass vials together with 7.16 µg of membrane recombinantly over-expressing CB1 (No. RBHCB1M, Perkin Elmer, Waltham, MA, US), which was resuspended in 0.2 mL (final volume) binding-buffer (50 mM TRIS-HCl, 2.5 mM EGTA, 5 mM MgCl2, 0.5 mg/mL fatty acid free BSA, pH 7.4). Test compounds were present at varying concentrations and the nonspecific binding of the radioligand was determined in the presence of 10 µM CP55,940 (Tocris Cookson Ltd., Bristol, UK). After 1.5 h incubation, the suspension was rapidly filtered through 0.05% polyethylenimine pre-soaked GF/C glass fiber filters on a 96-well cell harvester and washed nine times with 0.5 mL ice-cold washing-buffer (50 mM TRIS-HCl, 2.5 mM EGTA, 5 mM MgCl2, 2% BSA, pH 7.4). Radioactivity on filters was measured with a Beckman LS 6500 scintillation counter in 3 mL Ultima Gold scintillation liquid (Perkin Elmer, Waltham, MA, US). Data collected from three independent experiments performed in triplicates were normalized between 100% and 0% specific binding for [^3H]CP55,940. […] Derived from the dissociation constant (KD) of [^3H]CP55,940 and the concentration-dependent displacement (IC50 value), inhibition constants (Ki) of competitor compounds were calculated using the Cheng-Prusoff equation [Ki = IC50/(1+ L/KD)].
(Loss of bound radioactivity is the signal in a displacement assay; it reports binding, not function.)

A short description of series [2]: Critical micelle concentration (CMC) measurement, dye micellization. The format is physicochemical. The settings on record: fluorescein dye micellization in water, pH 6.9, room temperature. On the procedure: Dye micellization was carried out with a modified version of the method described by Eliyahu et al., Novel dextran-spermine conjugates as transfecting agents: comparing water-soluble and micellar polymers. […] Experiments were carried out on 96-well microtiter plates (excitation at 485 nm, emission at 535 nm). Since the emission of fluorescein is pH-dependent, the pH of the mixture was kept constant at 6.9. The CMC range was determined as the concentration range where the first statistically significant increase in fluorescence was detected.

Series [3] has as its target T2, FAAH (Sus scrofa, UniProt Q9TUI8).
T2 construct: 165 µl of diluted pig brain homogenate; from tissue; host or cells: pig brain homogenate
T2 sequence (Q9TUI8 1-579): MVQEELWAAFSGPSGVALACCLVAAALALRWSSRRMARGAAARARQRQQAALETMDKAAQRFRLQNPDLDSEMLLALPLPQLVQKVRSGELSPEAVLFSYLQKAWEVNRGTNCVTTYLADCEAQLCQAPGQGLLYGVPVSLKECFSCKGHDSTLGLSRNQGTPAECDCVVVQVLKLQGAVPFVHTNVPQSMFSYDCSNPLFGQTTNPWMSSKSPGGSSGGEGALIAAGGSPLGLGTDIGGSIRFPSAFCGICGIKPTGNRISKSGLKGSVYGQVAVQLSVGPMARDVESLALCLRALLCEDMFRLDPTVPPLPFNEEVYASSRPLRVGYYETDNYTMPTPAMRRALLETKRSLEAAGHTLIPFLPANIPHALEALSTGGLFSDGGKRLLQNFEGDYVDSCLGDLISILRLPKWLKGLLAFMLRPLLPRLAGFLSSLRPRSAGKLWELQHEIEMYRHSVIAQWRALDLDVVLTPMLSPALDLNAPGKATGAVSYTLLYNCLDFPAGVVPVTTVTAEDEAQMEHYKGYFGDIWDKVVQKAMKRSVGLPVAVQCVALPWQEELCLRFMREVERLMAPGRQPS
The series is described as follows: Fatty acid amide hydrolase (FAAH) inhibition, pig brain homogenate (assay D). It is filed as biochemical. As to conditions: 1 µM; pig brain homogenate (assay D). The protocol:
FAAH activity was assessed using pig brain homogenate according to the method described by Omeir et al., Arachidonoyl ethanolamide-[1,2-14C] as a substrate for anandamide amidase. Life Sci. 1995;56(23-24):1999-2005, and adapted by Fowler et al., Ibuprofen inhibits rat brain deamidation of anandamide at pharmacologically relevant concentrations. Mode of inhibition and structure-activity relationship. J Pharmacol Exp Ther. 1997 Nov;283(2):729-34. Briefly, 10 µl of test compounds at the adequate concentration or solvent were incubated at 37°C for 20 min with 165 µl of diluted pig brain homogenate in 10 mM Tris-HCl and 1 mM EDTA, pH 7.6 (corresponding to 100 µg/ml of total protein), 1% w/v fatty acid free BSA (Sigma, San Louis, MO, US) and 25 µl of a mixture 1:1 of nonradioactive AEA [^3H]-AEA (60 Ci mmol^-1) (concentration in the assay was 2 µM). Successively, 400 µl of a mixture 1:1 (v/v) of methanol:chloroform was added at each sample and, after vigorous vortexing, aqueous and organic phases were separated by centrifugation at 10000 rpm for 10 min. The radioactivity associated to the [^3H]-ethanolamine (produced by FAAH-catalysed breakdown of [^3H]-AEA) was measured upon addition of 3 ml of Ultima Gold scintillation liquid (Perkin Elmer, Waltham, MA, US) to 200 µl of the aqueous (upper) phase, using a Beckman LS6500 scintillation counter. Results were expressed as % of FAAH activity vs. pig brain homogenate treated only with solvent.

Series [4] deals with Arachidonoylethanolamide Transport (AEAT). The series is described as follows: Cellular uptake of [3H]-AEA in U937 cells (assay C). The format is cell-based. As to conditions: Homo sapiens, U-937; [3H]-AEA uptake, assay C (Tables 2 and 3).
Series [5] addresses T3, CB2 (Homo sapiens, UniProt P34972). As to conditions: read-out: affinity towards CB2 receptors, Ki; Gertsch, Planta Med. 2008; cited from earlier work.
Another series relates to CB2 receptors. The settings on record: Woelkart, Planta Med. 2005; cited from earlier work.
The target in series [6] is CB1 (Rattus norvegicus, UniProt P20272). As to conditions: Woelkart, Planta Med. 2005; cited from earlier work.
The test system of series [7] is FAAH. The settings on record: cited from earlier work.
The subject of the next series is PGE2 production. The settings on record: at 50 µM; LaLone 2007; cited from earlier work.
The subject of series [8] is RAW264.7 mouse macrophage cells. The settings on record: at 50 µM; LaLone 2007; cited from earlier work.
The conditions of series [9]: at 50 µM; Chen 2005; cited from earlier work.
The target of series [10] is T3, CB2. The series is described as follows: Radioligand displacement assay on CB2 receptor. It is filed as binding. Set-up: purchased Perkin Elmer RBXCB2M. On the procedure:
as §1
For CB2-receptor binding studies 3.8 µg of membrane recombinantly over-expressing CB2 (No. RBXCB2M, Perkin Elmer, Waltham, MA, US) were resuspended in 0.6 mL binding buffer (see above) together with 0.11 nM of the radioligand [^3H]CP55,940. The CB2-binding assay was conducted in the same manner as for CB1.

The test system of series [11] is Arachidonoylethanolamide Transport (AEAT). The experiment in a line: Cellular uptake of [3H]-AEA in U937 cells (assay C). It is filed as cell-based, Human. The settings on record: Figure 1(b); mean ± SEM of 3 independent experiments; read-out: EC50 value, AEA re-uptake inhibition. The protocol:
5x10^5 cells were collected and suspended in 500 µL of sterile PBS (Sigma, San Louis, MO, US) using glass silanized tubes. Cells were pre-incubated 10 min at 37°C in presence of test compounds in a concentration range of 10^-8 - 10^-4 M or in presence of the same amount of solvent (control). Then a mixture of 50 nM [^3H]-AEA (60 Ci/mmol) (American Radiolabeled Chemicals, Inc., San Louis, MO, US) and 50 nM of nonradioactive AEA (Tocris Cookson Ltd., Bristol, UK) was added and samples were incubated at 37°C for different times in the range of 1-60 min. The reaction was stopped by rapid filtration over Whatman GF/C filters pre-soaked in 0,25 % BSA. […] The filters-bound radioactivity was measured using a Beckman LS6500 scintillation counter. Results were expressed as % of AEA uptake versus cells treated with solvent and the EC50 and IC50 values were calculated from the sigmoidal curves, which were generated using the GraphPad Prism (GraphPad Software, San Diego, CA, US).

In the next series the test system is [3H]-AEA uptake. The series is described as follows: Cellular uptake of [3H]-AEA in human primary monocytes (assay C). The settings on record: Figure 1(a), 1 µM. The format is cell-based. On the procedure: • Figure 1: AEA re-uptake inhibition of 2E,4E-dieneamides 1 and 9 into human primary monocytes and U937 cells. […] Data are mean values ± SEM of 3 independent experiments in a sigmoidal dose-response curve. • Figure 2: Concentration-dependent effects of 4 and 5 on FAAH activity. […] The maximal inhibition (32%) of 5 was measured at 1 µM. Data are mean values ± SEM of 3 independent experiments. • Figure 3: Effects of low nM concentrations of N-alkylamide 7 on FAAH activity alone and in combination with the FAAH inhibitor URB597. […] Data are mean values ± SEM of 3 independent experiments. • Figure 4: 1 and 9 inhibit LPS-induced TNF-alpha release into culture medium (measured by ELISA). Human macrophages (10^6 cells) were stimulated with LPS (500 ng/ml) and treated with UCM707 and/or compounds 1 and 9 at 5 µM for 18 h. N = 3 ± SEM. • Figure 5: UCM707 (positive control) and compounds 1 and 9 diminish NO2^- production. Human macrophages (10^6 cells) were stimulated with LPS (500 ng/ml) and treated with UCM707 and/or compounds 1 and 9 at 5 µM for 18 h. Culture supernatants were assayed for nitrite levels, using the Griess reagent as a reflection of NO production. […]
Human lymphoma U937 cells were grown in RPMI 1640 medium (Invitrogen, Basel, Switzerland) supplemented with 10% fetal bovine serum, […] fungizone (amphotericin B), 100 units/ml penicillin, 100 µg/ml streptomycin, and 2 mM L-glutamine (all from Invitrogen) and selected for the cellular AEA uptake assay. […] The filters-bound radioactivity was measured using a Beckman LS6500 scintillation counter. Results were expressed as % of AEA uptake versus cells treated with solvent and the EC50 and IC50 values were calculated from the sigmoidal curves, which were generated using the GraphPad Prism (GraphPad Software, San Diego, CA, US).

Another series concerns NO2^- production. The experiment in a line: NO2- production in LPS-stimulated human macrophages (Griess reagent). It is filed as cell-based. As to conditions: Figure 5; LPS 500 ng/ml; 5 µM for 18 h. On the procedure:
(§2) • Figure 1: AEA re-uptake inhibition of 2E,4E-dieneamides 1 and 9 into human primary monocytes and U937 cells. […] Data are mean values ± SEM of 3 independent experiments in a sigmoidal dose-response curve. • Figure 2: Concentration-dependent effects of 4 and 5 on FAAH activity. […] The maximal inhibition (32%) of 5 was measured at 1 µM. Data are mean values ± SEM of 3 independent experiments. • Figure 3: Effects of low nM concentrations of N-alkylamide 7 on FAAH activity alone and in combination with the FAAH inhibitor URB597. […] Data are mean values ± SEM of 3 independent experiments. • Figure 4: 1 and 9 inhibit LPS-induced TNF-alpha release into culture medium (measured by ELISA). Human macrophages (10^6 cells) were stimulated with LPS (500 ng/ml) and treated with UCM707 and/or compounds 1 and 9 at 5 µM for 18 h. N = 3 ± SEM. • Figure 5: UCM707 (positive control) and compounds 1 and 9 diminish NO2^- production. Human macrophages (10^6 cells) were stimulated with LPS (500 ng/ml) and treated with UCM707 and/or compounds 1 and 9 at 5 µM for 18 h. Culture supernatants were assayed for nitrite levels, using the Griess reagent as a reflection of NO production. Results are the mean ± SEM of four independent experiments performed in duplicate • Figure 6: In CB receptor expressing human HaCaT keratinocytes (10^6 cells) UCM707 (control) 1 and 9 like the endocannabinoid anandamide (each 5 µM) inhibited tolerogen (10 µg/ml) induced chemokine IL-8 (6h stimulation and incubation). N = 3 ± SEM.
Background: Griess reagent forms a coloured azo dye with nitrite.

The next series relates to IL-8. The series is described as follows: Induced chemokine IL-8 in HaCaT keratinocytes. The format is cell-based, human. The settings on record: Figure 6, 5 µM, tolerogen 10 µg/ml, 6h. On the procedure: as §2

Like-named read-outs stand apart in the source and are kept apart here.

T3 sequence (P34972 whole entry): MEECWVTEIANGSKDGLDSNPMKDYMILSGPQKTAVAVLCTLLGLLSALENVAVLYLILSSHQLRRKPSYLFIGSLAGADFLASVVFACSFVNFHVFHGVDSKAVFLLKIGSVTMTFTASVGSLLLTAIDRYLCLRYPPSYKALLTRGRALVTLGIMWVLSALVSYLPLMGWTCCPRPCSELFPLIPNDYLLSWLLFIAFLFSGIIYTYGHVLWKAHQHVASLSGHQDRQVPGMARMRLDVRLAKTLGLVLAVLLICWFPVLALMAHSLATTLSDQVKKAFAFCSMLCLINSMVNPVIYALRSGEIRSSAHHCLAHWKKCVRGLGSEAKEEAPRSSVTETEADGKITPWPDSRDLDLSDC
T1 sequence (P21554 whole entry): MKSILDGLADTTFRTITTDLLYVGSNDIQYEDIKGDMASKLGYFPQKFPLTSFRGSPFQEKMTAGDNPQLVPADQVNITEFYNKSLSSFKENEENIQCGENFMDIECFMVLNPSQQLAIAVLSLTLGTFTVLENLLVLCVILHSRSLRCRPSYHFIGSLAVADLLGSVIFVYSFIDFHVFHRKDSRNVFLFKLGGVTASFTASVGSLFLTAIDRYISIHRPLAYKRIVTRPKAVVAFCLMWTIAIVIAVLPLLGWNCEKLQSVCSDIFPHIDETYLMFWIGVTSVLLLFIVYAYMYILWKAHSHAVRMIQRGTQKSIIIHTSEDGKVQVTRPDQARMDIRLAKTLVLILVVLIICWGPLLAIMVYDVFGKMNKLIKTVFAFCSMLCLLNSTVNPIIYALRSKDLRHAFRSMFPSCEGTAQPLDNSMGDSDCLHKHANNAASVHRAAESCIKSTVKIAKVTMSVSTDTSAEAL
CB1 (Rattus norvegicus, UniProt P20272), sequence (P20272 whole entry): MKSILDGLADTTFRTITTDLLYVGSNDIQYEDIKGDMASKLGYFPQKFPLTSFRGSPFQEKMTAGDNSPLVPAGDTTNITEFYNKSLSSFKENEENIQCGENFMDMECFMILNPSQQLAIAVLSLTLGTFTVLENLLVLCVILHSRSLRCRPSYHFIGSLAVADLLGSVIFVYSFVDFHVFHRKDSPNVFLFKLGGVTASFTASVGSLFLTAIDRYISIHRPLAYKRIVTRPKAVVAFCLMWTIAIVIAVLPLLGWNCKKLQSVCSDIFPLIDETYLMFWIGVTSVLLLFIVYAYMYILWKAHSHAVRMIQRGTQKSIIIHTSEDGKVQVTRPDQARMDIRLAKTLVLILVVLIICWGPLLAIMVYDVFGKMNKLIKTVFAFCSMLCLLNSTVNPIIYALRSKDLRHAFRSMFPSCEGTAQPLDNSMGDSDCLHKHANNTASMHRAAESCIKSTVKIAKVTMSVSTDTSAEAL

With `CCCCCCC/C=C/C=C/C(=O)NCC(C)C` [Compound A, (2E,4E)-N-isobutyldodeca-2,4-diene amide], the Ki is 1940 ± 213 nM at CB1 [1] (displacement of 0.39 nM [3H]CP55,940, membrane recombinantly over-expressing CB1, read-out: Receptor affinity Ki CB1); < 100 nM at CB2 [5]; 60 ± 7 nM on CB2 [10] (displacement of 0.11 nM [3H]CP55,940, membrane recombinantly over-expressing CB2, read-out: Receptor affinity Ki CB2). Further, the “affinity towards CB1 (in words)” value at CB1 [1] (summary of Table 3) is recorded as “moderate affinity”. In addition, the CMC in [2] is recorded as <0.5 µM. For the same compound, at FAAH [3], the “FAAH inhibition at 1 µM” value is listed as <10 % of control. In series [4], the concentration for a half-maximal effect (EC50) was > 10000 nM. Also, the “affinity to CB2 receptor” value with CB2 receptors is given as “single digit micromolar range”. For the same compound, the “affinity to CB1 receptor” value at CB1 [6] is listed as “single digit micromolar range”. In addition, the “inhibition of FAAH” value in the series on FAAH [7] (Gertsch, Planta Med. 2008) is “did not inhibit”; in the series on FAAH [7] (Woelkart, Planta Med. 2005), “very weak inhibitor”. In addition, the PGE2 production entry in the series on PGE2 production is “inhibiting”. Also, the cytotoxicity result in series [8] was “No significant cytotoxicity”. Also, the cell death in series [9] is 50%. Also, the “affinity towards CB2 (in words)” value on CB2 [10] (summary of Table 3) is listed as “high affinity”.

On to `CCCCC/C=C\C/C=C\C/C=C\C/C=C\CCCC(=O)NCc1ccoc1` [UCM707, reference compound], for which the EC50 in series [11] was 1420 ± 296 nM. For the same compound, the “[3H]-AEA uptake inhibition” value in [3H]-AEA uptake was “clearly less active”. Also, the “NO2^- production” value in the series on NO2^- production was “diminish”. The “tolerogen induced chemokine IL-8” value in the series on IL-8 was “inhibited”.

Usually Ki stands for a measure of affinity in units of concentration, obtained from inhibition or displacement. The EC50 is the concentration giving half of the maximal effect.
